Measurements: patent publication US12396936B2, “Antimicrobial composition for tackling malodour” (Conopco, Inc., priority 2020, dated 2025)

System: S. hominis ATCC 27844
Test: Malodour assay using Lead acetate method (H2S blackening of lead acetate paper, ΔE by reflectometer)
Type: cell-based
Details: active wt % as printed per example; TSB with 0.1% L-cysteine-HCl, 37° C. overnight, triplicates; calculated from ΔE; control = 100
Description: The actives as shown in Table—1 below were subjected to malodour reduction assay as described below: • Malodour assay using Lead acetate method: Preparation of Bacterial Culture:
The test organisms was grown on TSA (Tryptic Soya Agar) plates overnight (22±2 hr). The organism was not more than 3 passages removed from the original source. The cell number was adjusted by re-suspending it in a suitable amount of physiological saline sufficient to achieve the required cell number based on optical density of the cells. The optical density (OD at 620 nm) of the cells were standardized to the cell number for the test organism using a spectrophotometer. A minimum final suspension of 1.0×10^8 CFU/mL was achieved by adjusting the OD to 0.2 in saline for the malodour assay.
A 1% Lead acetate solution was made in distilled water. […]
The malodour assay was adapted from the method of Moore et al, 2003 and modified into a 96 well plate format. […] The intensity of the colour was recorded using a reflectometer as L*a*b* values.
The difference between the initial and final L*a*b* values ΔE, was used to quantify malodour formation.) ΔE=√{square root over ((Li−Lf)^2+(ai−af)^2+(bi−bf)^2)}
The percentage malodour was calculated from ΔE measured using the above assay for the various actives or combinations.

CCCCCCc1ccc(O)cc1O [B, Hexyl resorcinol]
Malodour generation (%): 96%
